# Numbers after ± are expanded uncertainties.
# Experiments:
# [1] = 101.33 kPa, Liquid, Vibrating tube method
# [2] = activity coefficient (dimensionless); of the first substance listed, at infinite dilution; xn = mol fraction of the nth substance listed; settings: 101 kPa, Liquid, Chromatography, x1 = 0
Structure (SMILES),mass density ([1]; 308.15 K) [kg/m3],mass density ([1]; 318.15 K) [kg/m3],mass density ([1]; 328.15 K) [kg/m3],mass density ([1]; 338.15 K) [kg/m3],mass density ([1]; 348.15 K) [kg/m3],mass density ([1]; 358.15 K) [kg/m3],activity coefficient ([2]; 308.15 K),activity coefficient ([2]; 318.15 K),activity coefficient ([2]; 328.15 K),activity coefficient ([2]; 338.15 K),activity coefficient ([2]; 348.15 K),activity coefficient ([2]; 358.15 K),activity coefficient ([2]; 368.15 K)
CCCC[n+]1cccc(C)c1.N#C[N-]C#N [1-butyl-3-methylpyridinium dicyanamide],1040.66 ± 2.1,1034.63 ± 2.1,1028.66 ± 2.1,1022.75 ± 2.1,1016.77 ± 2,1010.8 ± 2,–,–,–,–,–,–,–
CCCCCCC [heptane] + CCCC[n+]1cccc(C)c1.N#C[N-]C#N,–,–,–,–,–,–,82.8 ± 5.7,75.7 ± 5.2,69.9 ± 4.8,64.3 ± 4.4,59.4 ± 4.1,55.4 ± 3.8,51.7 ± 3.5
C=CCCCC [hex-1-ene] + CCCC[n+]1cccc(C)c1.N#C[N-]C#N,–,–,–,–,–,–,22.4 ± 1.5,21.4 ± 1.5,20.4 ± 1.4,19.5 ± 1.3,18.7 ± 1.3,17.8 ± 1.2,17.1 ± 1.2
CCCCCC [hexane] + CCCC[n+]1cccc(C)c1.N#C[N-]C#N,–,–,–,–,–,–,56.1 ± 3.8,51.7 ± 3.5,47.8 ± 3.3,44.3 ± 3,41.3 ± 2.8,38.6 ± 2.6,36 ± 2.5
CC1CCCCC1 [methylcyclohexane] + CCCC[n+]1cccc(C)c1.N#C[N-]C#N,–,–,–,–,–,–,34.1 ± 2.3,31.5 ± 2.2,29.3 ± 2,27.3 ± 1.9,25.5 ± 1.7,23.9 ± 1.6,22.6 ± 1.5
CCCCCCCCC [nonane] + CCCC[n+]1cccc(C)c1.N#C[N-]C#N,–,–,–,–,–,–,182 ± 13,162 ± 11,148 ± 10,134 ± 9,122 ± 8,112 ± 8,103 ± 7
C=CCCCCCC [oct-1-ene] + CCCC[n+]1cccc(C)c1.N#C[N-]C#N,–,–,–,–,–,–,49.7 ± 3.4,46.7 ± 3.2,44 ± 3,41.8 ± 2.9,39.5 ± 2.7,37.6 ± 2.6,35.7 ± 2.4
CCCCCCCC [octane] + CCCC[n+]1cccc(C)c1.N#C[N-]C#N,–,–,–,–,–,–,123 ± 8,111 ± 8,101 ± 7,92.7 ± 6.4,85.2 ± 5.8,79 ± 5.4,73.3 ± 5
CCCC(C)=O [pentan-2-one] + CCCC[n+]1cccc(C)c1.N#C[N-]C#N,–,–,–,–,–,–,–,–,1.81 ± 0.12,1.84 ± 0.12,1.89 ± 0.13,1.93 ± 0.13,1.96 ± 0.13
CCC(=O)CC [pentan-3-one] + CCCC[n+]1cccc(C)c1.N#C[N-]C#N,–,–,–,–,–,–,–,–,1.84 ± 0.12,1.89 ± 0.13,1.94 ± 0.13,1.97 ± 0.13,2.01 ± 0.14
CCCO [propan-1-ol] + CCCC[n+]1cccc(C)c1.N#C[N-]C#N,–,–,–,–,–,–,–,–,–,0.678 ± 0.046,0.663 ± 0.045,0.65 ± 0.044,0.638 ± 0.044
c1ccncc1 [pyridine] + CCCC[n+]1cccc(C)c1.N#C[N-]C#N,–,–,–,–,–,–,–,–,–,0.718 ± 0.048,0.731 ± 0.048,0.754 ± 0.05,0.768 ± 0.05
C=Cc1ccccc1 [styrene] + CCCC[n+]1cccc(C)c1.N#C[N-]C#N,–,–,–,–,–,–,–,–,1.39 ± 0.09,1.44 ± 0.09,1.49 ± 0.1,1.54 ± 0.1,1.59 ± 0.11
C1CCOC1 [tetrahydrofuran] + CCCC[n+]1cccc(C)c1.N#C[N-]C#N,–,–,–,–,–,–,1.38 ± 0.09,1.4 ± 0.09,1.43 ± 0.09,1.45 ± 0.1,1.47 ± 0.1,1.5 ± 0.1,1.53 ± 0.1
c1ccsc1 [thiophene] + CCCC[n+]1cccc(C)c1.N#C[N-]C#N,–,–,–,–,–,–,0.822 ± 0.053,0.844 ± 0.054,0.868 ± 0.055,0.89 ± 0.057,0.911 ± 0.058,0.937 ± 0.059,0.955 ± 0.06
Cc1ccccc1 [toluene] + CCCC[n+]1cccc(C)c1.N#C[N-]C#N,–,–,–,–,–,–,–,–,2.01 ± 0.14,2.05 ± 0.14,2.1 ± 0.14,2.15 ± 0.15,2.2 ± 0.15
O [water] + CCCC[n+]1cccc(C)c1.N#C[N-]C#N,–,–,–,–,–,–,–,–,–,0.294 ± 0.031,0.302 ± 0.031,0.307 ± 0.031,0.314 ± 0.031

# Source: the NIST ThermoML archive (doi:10.1016/j.jct.2013.09.007)
